Assay results from patent US11434270B2, “Protein for neutralizing programmed necrocytosis promotion antibody, and application of protein” (SHANGHAI JW INFLINHIX CO., LTD., priority 2015, dated 2022).

Experiments:
[1] = system: L929 cells; test: Apoptosis and necrosis test (live/dead staining, active caspase-3, flow cytometry) in L929 cells; assay type: cell-based, mouse
Description: (§1) In the presence of TNF or TNF peptide with or without 20 μM z-VAD-FMK (R & D Systems, Minneapolis, Minn.) or 20 μM Necrotatin-1 (PeproTech, Rocky Hill, N.J.) (Immunotools, Friesoythe, Germany), cells were incubated overnight (or the time shown in the incubation diagram). In some experiments, TNF was co-cultured with cells and the monoclonal antibody with indicated concentration or synovial fluid. Cells were stained using live/dead cell staining kit (Invitrogen, Paisley, UK) according to the manufacturer's manual and fixed using a cytofix/cytoperm fixation/permeabilization solution kit (BD Pharmingen, Oxford, UK). Intracellular staining was then performed using FITC-conjugated anti-caspase-3 antibody (Cell Signaling Technology, Danvers, Mass., USA). Cells were harvested by CyAn flow cytometer (Beckman Coulter, Fullerton, Calif.), and data were analysed by Flowjo (Tree Star Inc. Ashland, Oreg.).

[2] = system: cell necrosis-promoting antibody (244-12); test: ELISA binding of polypeptide to cell necrosis-promoting antibody; details: for binding to cell necrosis-promoting antibodies: summary table
Description: (§2) However, the reaction with synovial fluid of a control patient without autoantibodies (SF010) was negative. ELISA plates were coated with 2 μg/ml of P11-17, blocked with BSA, incubated with 244-12, SF024, SF045, SF010 at room temperature for 1 hour, and then identified with horseradish peroxidase […] anti-mouse or human IgG secondary antibody.

[3] = system: cell necrosis caused by cell necrosis-promoting antibody; test: Inhibition of cell necrosis caused by cell necrosis-promoting antibody; assay type: cell-based
Description: as §1

[4] = system: monoclonal antibody 244-12; test: Competitive inhibition ELISA of TNF binding to monoclonal antibody 244-12; details: plates coated with TNF, peptide added, then 244-12
Description: (§3) ELISA plates were coated with 2 μg/ml of TNF at 4° C. overnight, or at 37° C. for 2 hours, and then incubated with a monoclonal antibodies at 37° C. for 1 hour. A second antibody conjugated to HRP was used to detect the reaction. For the inhibition assay, TNFR1 or synovial fluid was added together with the monoclonal antibody.
METHODS: plates were coated with TNF, and the indicated peptides were added to each well, and then the monoclonal antibody 244-12 was added.

[5] = system: cells; test: Apoptosis and necrosis test, cell line not stated; assay type: cell-based; details: summary table
Description: as §1

[6] = system: cells; test: Stimulation of cell proliferation; assay type: cell-based; details: summary table
[7] = biological target: T1, TNF (Homo sapiens, UniProt P01375); test: ELISA screening of monoclonal antibodies for binding to TNF; details: screening of 33 monoclonal antibodies
T1 construct: purchased Immunotools
Description: as §3

[8] = system: TNF receptors; test: L929 cell immunofluorescence microscopy: TNF/antibody binding to cell surface TNF receptors; assay type: cell-based, mouse
Description: At room temperature, 20 ng/ml of TNF and 2 μg/ml of mAb M26 or 244-12 were incubated for 1 hour. The mixture of TNF/M26 or TNF/244-12 were incubated on ice with L929 cells grown on coverslip for an another 15 minutes. The cells were fixed with 4% paraformaldehyde (PBS formulation) were for 10 minutes, blocked with phosphate buffer containing 0.5% BSA and 0.1% cold water fish gelatin for 15 minutes, and then incubated with rabbit anti-TNFR1 antibody (Abeam) for 1 hour. The cells were washed with PBS and then incubated with the relevant secondary antibody coupled to Alexa Fluor 488 or Alexa Fluor 568 (Invitrogen). Then the sample washed with PBS was mounted with Gelvatol/DABCO (Sigma-Aldrich). DNA was counterstained with DAPI (Sigma-Aldrich). All samples were analyzed by fluorescence microscopy at 60× using Nikon Eclipse 80i. Images were taken with NIS-Elements AR3.0 software using Hamamatsu camera.

[9] = system: C2812 cells (chondrocytes); test: Apoptosis test (active caspase-3) in C2812 chondrocytes; assay type: cell-based, human; details: antibody added to TNF
Description: as §1

[10] = system: cell necrosis-promoting antibodies present in joint fluid of arthritis patients; test: ELISA binding of polypeptide to autoantibodies in synovial fluid of arthritis patients; set-up: species or system human; details: plate coated with 2 μg/ml of P11-17
Description: as §2

T1 sequence (P01375 whole entry): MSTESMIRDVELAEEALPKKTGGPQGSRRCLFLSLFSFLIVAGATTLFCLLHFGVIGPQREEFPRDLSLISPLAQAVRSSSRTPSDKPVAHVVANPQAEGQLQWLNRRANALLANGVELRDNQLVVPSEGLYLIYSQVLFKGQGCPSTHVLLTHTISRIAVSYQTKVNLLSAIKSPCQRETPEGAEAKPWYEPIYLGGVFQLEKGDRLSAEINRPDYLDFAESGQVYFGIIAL

Row | Molecule | binding to cell necrosis-promoting antibodies [2] | Inhibition of cell necrosis ([3]; summary table) | competitive inhibition of binding of TNF to mAb 244-12 [4] | Apoptosis [5] | Necrosis [5] | Stimulation of cell proliferation [6] | also measured
1 | CN1C(=O)C(Cc2c[nH]c3ccccc23)NC1=S (stereo not drawn) [Nec-1, Necrotatin-1, reference compound] |  |  |  |  |  |  | necrosis induced by antibody 244-12 + TNF ([1]; Nec-1 added to 244-12+TNF, necrosis converted into apoptosis): can be inhibited
2 | DNQLVVPSEG [P13-1] | Yes | Yes | significantly inhibited | no | no | no | 
3 | NQLVVPSEGL [P13-2] | Yes | Yes | significantly inhibited | no | no | no | 
4 | QLVVPSEGLY [P13-3] | Yes | Yes | significantly inhibited | no | no | no | 
5 | RDNQLVVPSE [P12-10] | Yes | Yes | significantly inhibited | no | no | no | 
6 | Tumor necrosis factor α [TNFα] | Yes | no |  | Yes | Yes | Yes | cell fate of L929 cells ([1]; TNF alone): apoptosis
7 | 244-12: cell necrosis-promoting monoclonal antibody binding TNF epitope QLVVPSE; light chain SEQ ID NO: 9, heavy chain SEQ ID NO: 10 (antibody, listed as Homo sapiens) heavy: QIQLVQSGPELKKPGETVKISCKASGYTFTNYGMNWVKQAPGKGLKWMGWINTYTGEPTYADDFKGRFAFSLETSANTAYLQINNLRNEGMATYFCARHYRYAWFPYWGQGTLVTVSAAKTTPPSVYPLAPGCGDTTGSSVTLGCLVKGYFPESVTVTWNSGSLSSSVHTFPALLQSGLYTMSSSVTVPSSTWPSQTVTCSVAHPASSTTVDKKLEPSGPISTINPCPPCKECHKCPAPNLEGGPSVFIFPPNIKDVLMISLTPKVTCVVVDVSEDDPDVQISWFVNNVEVHTAQTQTHREDYNSTIRVVSTLPIQHQDWMSGKEFKCKVNNKDLPSPIERTISKIKGLVRAPQVYILPPPAEQLSRKDVSLTCLVVGFNPGDISVEWASNGHTEENYKDTAPVLDSDGSYFIYSKLNMKTSKWEKTDSFSCNVRHEGLKNYYLKKTISRSPGK light: DIQMTQSPASLSASVGETVTITCRASGNIHIYLAWYQQKQGKSPQLLVYNAKTLADGVPSRFSGSGSGTQYSLKINSLQPEDFGSYYCQHFWSIPWTFGGGTKLEIKRADAAPTVSIFPPSSEQLTSGGASVVCFLNNFYPKDINVKWKIDGSERQNGVLNSWTDQDSKDSTYSMSSTLTLTKDEYERHNSYTCEATHKTSTSPIVKSFNRNEC |  |  |  |  |  |  | TNF-induced apoptosis (expression of active caspase-3) ([1]; L929 cells, antibody added to TNF): blocked; cell fate of L929 cells ([1]; antibody added together with TNF): necrosis; binding to TNF by ELISA test [7]: strongest; direct binding of antibody to cell surface ([8]; absence of TNF): cannot directly bind to cell surface; effect of antibody binding to TNF on binding of TNF to TNF receptors ([8]; confocal micrograph, L929 cells, TNF present): did not affect; TNF-induced apoptosis (expression of active caspase-3) [9]: blocked
8 | QLQWLNRRANALLANGVELRDNQLVVPSEGLYLIYSQVLFKGQGCPSTHVLLTHTISRIAVSYQTKVNLLSAIKSPCQRE (protein) QLQWLNRRANALLANGVELRDNQLVVPSEGLYLIYSQVLFKGQGCPSTHVLLTHTISRIAVSYQTKVNLLSAIKSPCQRE | Yes | Yes |  | no | no | no | binding to purified cell necrosis-promoting antibody (244-12) ([2]; ELISA plate coated with 2 μg/ml of P11-17): can bind; Inhibition of cell necrosis ([3]; necrosis caused by purified 244-12 or by antibody in patients' synovial fluid (SF002, SF045)): can effectively inhibit cell necrosis; reaction with synovial fluid of a control patient without autoantibodies ([10]; sample SF010): negative; binding to cell necrosis-promoting antibodies in joint fluid of arthritis patients ([10]; samples SF024, SF045): bind
9 | QLQWLNRRANALLANGVELRDNQLVVPSEGLYLIYSQVLFKGQGCPSTHVLLTHTISRIAVFHQTKVNLLSAIKSPCQRE (protein) QLQWLNRRANALLANGVELRDNQLVVPSEGLYLIYSQVLFKGQGCPSTHVLLTHTISRIAVFHQTKVNLLSAIKSPCQRE | Yes | Yes |  | no | no | no | 
